Test results taken from US20170327556A1, “CARTILAGE-BINDING FUSION PROTEINS” (Merrimack Pharmaceuticals, Inc., priority 2013, published 2017).

Tests used:
BXPC-3 cells = experiment: Stimulation of AKT phosphorylation in BXPC-3 cells (pAKT ELISA); type: cell-based; settings: 10 min stimulation, doses in M (Table 4), 6x-Histidine-tagged fusion proteins
Procedure: (§1) Fusion proteins comprising IGF-1 and a cartilage matrix binding domain were prepared as described above. Six fusion proteins were prepared: GF-Fus1 (6x-Histidine-tagged), GF-Fus2(6x-Histidine-tagged), GF-Fus3 (6x-Histidine-tagged), GF-Fus4 (6x-Histidine-tagged), GF-Fus5 (6x-Histidine-tagged), and GF-Fus6 (6x-Histidine-tagged). In order to ensure that the growth factor portion of the fusion protein was active in the fusion proteins, each construct was tested for its ability to stimulate AKT phosphorylation. Wild-type IGF-1 (wtIGF) was included as a control. Bovine chondrocytes were stimulated with a range of doses of each fusion protein, and pAKT levels were measured by ELISA.
For ligand stimulation, chondrocytes were seeded at 200,000 cells/well into 96-well tissue culture plates with 100 μL of chondrocyte culture medium with fetal bovine serum (10% v/v, Life Technologies Cat#16140071). Alternatively, BXPC-3 cells, a pancreatic adenocarcinoma cell line (ATCC® CRL-1687™), were seeded at 30,000 cells/well into 96-well tissue culture plates with 100 μL of BXPC-3 medium (RPMI-1640, e.g., ATCC® 30-2001™), with L-glutamine (2 mM), Penicillin-Streptomycin (1×, Gibco® 15140-122), Fetal Bovine Serum (10% v/v, Life Technologies Cat#16140071)). After 24 hrs, both chondrocytes and BXPC-3 cells were rinsed with 100 μL of sterile PBS (pH=7.4) per well and 100 μl of chondrocyte or BXPC-3 culture medium (without fetal bovine serum) was added to the corresponding cell type. After an additional 24 hrs, cells were stimulated with the doses of fusion proteins set forth in Table 4 by adding 25 μL of fusion protein at a concentration 5 times greater than the concentration listed in Table 4 to the 100 μL of medium already in the wells. After 10 min of stimulation, fusion protein was removed and wells were rinsed in ice cold PBS (pH=7.4). 50 μL/well of cell extraction buffer (Invitrogen cat# FNN0011) was added and incubated with shaking at 4° C. for 30 minutes. Lysates were then frozen at −80° C.
Corning high binding 384 well black ELISA plates (cat#3577) are coated with 30 μL of capture antibody at 4 μg/mL (anti-AKT1 total capture antibody, Upstate, Cat#05-591MG) in PBS (pH=7.4) for 16 hours at room temperature, washed and blocked with […] 2% bovine serum albumin (Sigma Cat# A3294) in PBS (pH=7.4) for 1 hour at room temperature. 20 μL of thawed lysates or recombinant pAKT standards (ten 2-fold serial dilutions of 400 ng recombinant human AKT, active (Upstate, Cat#14-276) in PBS (pH=7.4) containing 50% v/v Cell extraction buffer (Invitrogen Cat#FNN0011), 1% bovine serum albumin (Sigma Cat# A3294), 0.05% Tween20) are applied to the coated plate and incubated for 2 hours at room temperature. After washing 3 times with 100 μL/well of 0.05% Tween-20/PBS (pH=7.4) bound phospho-AKT is detected using Phospho-AKT (Ser473)(587F11)-biotinylated (Cell Signaling, Cat#5102), streptavidin-HRP (R&D Systems Cat# DY998, Part #890803), SuperSignal ELISA PicoChemiluminescent Substrate (Thermo Scientific Cat#37069), using a luminometer to detect light emissions at 425 nm.

[1] = system: AKT phosphorylation in bovine chondrocytes; experiment: Stimulation of AKT phosphorylation in primary bovine chondrocytes (pAKT ELISA); type: cell-based; settings: 10 min stimulation, doses in M (Table 4), 6x-Histidine-tagged fusion proteins
Procedure: as §1
Bovine chondrocytes are isolated from the femoral chondyles of 2-4 week old bovine calves. Knee joints are mounted by removing all tissue surrounding the femur, removing the femoral head with a bone saw or hack saw, and clamping in a tissue vice. Joints are aseptically opened, removing the patella, tibia and fibula. Using a scalpel, cartilage is sliced off the femoral chondyles and placed in sterile PBS (pH=7.4) containing penicillin-streptomycin (1×, Gibco 15140-122). PBS is subsequently removed and pronase solution (50 mL per 5 g of tissue), consisting of high glucose DMEM (Life Technologies Cat#11965-092), fetal bovine serum (10% v/v, Life Technologies Cat#16140071), HEPES (100 mM, Gibco 15630-080), non-essential amino acids (1×, Sigma M7145), penicillin-streptomycin (1×, Gibco 15140-122), proline (400 μM, Sigma P5607-256), Protease Type XIV (2 mg/mL, Sigma Cat# P5147), is added for 1 hour with stirring. After rinsing twice with sterile PBS (pH=7.4), collagenase solution (50 mL per 5 g of tissue), consisting of high glucose DMEM (Life Technologies Cat#11965-092), fetal bovine serum (10% v/v, Life Technologies Cat#16140071), HEPES (100 mM, Gibco 15630-080), NEAA(1×, Sigma M7145), Penicillin-Streptomycin (1×, Gibco 15140-122), 0.25 mg/mL Collagenase P (Roche Cat#11 249 002 001), is added for 18 hours with stirring. Cell are strained, washed, and resuspended in chondrocyte culture medium (low glucose DMEM (1× Gibco 11885-084), Penicillin-Streptomycin (1×, Gibco 15140-122), non-essential amino acids (1×, Sigma M7145), and HEPES (100 mM, Gibco 15630-080)) with fetal bovine serum (10% v/v, Life Technologies Cat#16140071).
For ligand stimulation, chondrocytes were seeded at 200,000 cells/well into 96-well tissue culture plates with 100 μL of chondrocyte culture medium with fetal bovine serum (10% v/v, Life Technologies Cat#16140071). […]

GF-Fus5: IGF-1(LR3) fused to CNA35 CB domain
logEC50 Mean (BXPC-3 cells): −8.969

GF-Fus1: IGF-1 variant polypeptide Long [R^3]-IGF-1, no fused binding domain; used 6x-Histidine-tagged as control [reference compound]
logEC50 Mean [1]: −9.227
logEC50 Mean (BXPC-3 cells): −8.605

wtIGF: Wild-type IGF-1 (R&D systems 291-G1), control [reference compound]
logEC50 Mean [1]: −9.071
logEC50 Mean (BXPC-3 cells): −9.081

GF-Fus6: IGF-1(LR3) fused to CNA344 CB domain
logEC50 Mean (BXPC-3 cells): −8.832

GF-Fus3: C-terminal fusion IGF-1(LR3)-PRELP heparin binding domain
logEC50 Mean [1]: −9.175
logEC50 Mean (BXPC-3 cells): −9.231
